Test results: patent US9586947B2, “Imidazoline derivatives, preparation methods thereof, and their applications in medicine” (priority 2012, dated 2017)
Like-named read-outs stand apart in the source and are kept apart here.

Legend:
[1] = test system: PSA secretion of LNCaP cells; experiment: Inhibitory activity on PSA secretion of LNCaP cells; format: cell-based; conditions: Homo sapiens, 96 h, read-out: IC50 (inhibition of PSA secretion of LNCaP cells)
Experimental: The following in vitro assay was performed to determine the activity of the compounds of the present invention for inhibiting prostate specific antigen (PSA) secretion of LNCaP cells.
(11). Testosterone culture medium: RIPM 1640 culture medium, 10% CS-FBS, 1% Pen Strep, 1 nM testosterone
LNCaP cells were subcultured in cell culture medium, resuspended in active carbon culture medium, and then inoculated into a 96-well plate (100 μl/well) with an inoculation density of 5×10^4 cells/well.
(§1) The test compounds were dissolved in DMSO (dimethyl sulfoxide) and prepared as a 10 mM stock solution. When used, the stock solution was diluted with 5×DMSO and then diluted with a threefold gradient to obtain 8 gradient concentrations. Then, the 8 gradient concentrations were each diluted with 20× testosterone culture medium, in order to ensure DMSO concentration in each culture system was 0.5%. Diluted test compounds remained to be tested.
10 μl of diluted test compounds were added to a 96-well plate and mixed gently. 10 μl of 0.5% DMSO diluted with active carbon culture medium was added to the blank group, and 10 μl of 0.5% DMSO diluted with testosterone culture medium was added to the control group. The 96-well plate was cultured in an incubator under the conditions of 37° C. and 5% CO2.
After 4 days of incubation, 60 μl of cell cultural supernatants were collected, and the OD450 value per well was measured on a NOVO Star microplate reader using PSA kit (Abnova, KA0208).
(§2) IC50 values were calculated from the data of the inhibition rates of the test compounds at various concentrations.

[2] = test system: PSA secretion of LNCaP-AR cells (AR-overexpressed LNCaP cells); experiment: Agonist activity on PSA secretion of LNCaP-AR cells; format: cell-based; conditions: 96 h, 4 days, OD value (test compounds)/OD value (blank control), blank control 100
Experimental: The following in vitro assay was performed to determine the activity of a high concentration of the compounds of the present invention for agitating the PSA secretion of LNCaP-AR cells (AR-overexpressed LNCaP cells, referred to as “LNCaP-AR cells” for short, constructed by a retroviral transfection method).
LNCaP-AR cells were subcultured in cell culture medium, resuspended in active carbon culture medium, and then inoculated into a 96-well plate (100 μl/well) with an inoculation density of 5×10^4 cells/well.
as §1, with “DMSO into the two concentrations of 2 mM” for “5×DMSO”, “0.6 mM.” for “then diluted with a threefold gradient to obtain 8 gradient concentrations.”, “diluted” for “8 gradient”, “active carbon” for “testosterone”
10 μl of diluted test compounds were added to a 96-well plate and mixed gently. 10 μl of 0.5% DMSO diluted with active carbon culture medium was added to the blank control group.
After 4 days of incubation, 60 μl of cell cultural supernatants were collected, and the OD value of PSA per well was measured on a NOVO Star microplate reader using PSA kit (abnova, KA0208).
Agonist activity of the test compounds of the present invention on PSA secretion of LNCaP-AR cells was evaluated by the percentage of OD value (test compounds)/OD value (blank control). When the percentage value is greater than 100, the test compounds have agonist activity on PSA secretion of LNCaP-AR cells compared to the blank control. Conversely, when the percentage value is less than 100, the test compounds have no agonist activity on PSA secretion of LNCaP-AR cells compared to the blank control.

[3] = Pharmacokinetics assay in rats, intragastric administration; format: in vivo; conditions: Sprague-Dawley, rat, po, male SD rats, 5 mg/kg; for Vd/F: read-out: Apparent Distribution Volume Vz/F; for AUC: read-out: Area Under Curve AUC; for CL/F: read-out: Clearance CLz/F; for half-life: read-out: Half-Life T½ (converted); for MRT: read-out: Mean Residence Time MRT; for Cmax: read-out: Plasma Conc. Cmax
Experimental: Male rats were used as test animals. The compounds of Example 6, Example 9, Example 11, Example 13, Example 15, Example 16, Example 17, Example 44, and Example 45 were administered intragastrically to rats to determine the drug concentration in plasma at different time points by LC/MS/MS method. The pharmacokinetic behavior of the compounds of the present invention was studied and evaluated in rats.
27 healthy adult male Sprague-Dawley (SD) rats, purchased from SINO-BRITISH SIPPR/BK LAB. ANIMAL LTD., CO, Certificate No.: SCXK (Shanghai) 2008-0016, were divided into 9 groups, with 3 rats in each group.
The appropriate amount of test compounds was weighed and mixed with 0.5% CMC-Na to prepare a 0.5 mg/mL suspension by an ultrasonic method.
After an overnight fast, 27 SD rats were divided into 9 groups, and administered the compounds intragastrically at a dose of 5.0 mg/kg and an administration volume of 10 mL/kg.
Compounds of Example 6, Example 9, Example 11, Example 13, Example 15, Example 16, Example 17, Example 44, and Example 45 were administered intragastrically to rats. Blood samples (0.1 mL) were taken from the orbital sinus before administration, and at 0.5 h, 1.0 h, 2.0 h, 3.0 h, 4.0 h, 6.0 h, 8.0 h, 11.0 h, and 24.0 h after administration, stored in heparinized tubes, and centrifuged for 5 minutes at 3,500 rpm to separate blood plasma. The plasma samples were stored at −20° C. The rats were fed 2 hours after administration.
The concentration of the different test compounds in rat plasma after intragastrically administering the test compounds was determined by LC-MS/MS method. The linearity of the method is 1.00-2000 ng/ml. Plasma samples were analyzed after protein precipitation was accomplished by the addition of methanol.

LNCaP cells = experiment: Proliferation inhibition of LNCaP cells (CCK-8); format: cell-based; conditions: Homo sapiens, 144 h, cultured 3 + 3 days, CCK-8, OD at 450 nm
Experimental: The following in vitro assay was performed to determine the activity of the compounds of the present invention for inhibiting the proliferation of LNCaP cells.
(1). Cell counting reagent CCK-8 (DOJINDO, CK04)
See experimental procedure from Test Example 1.
After LNCaP cells were cultured for 3 days, the culture medium, test compounds, blank group, and control group were renewed with half of the liquid volume, and were cultured for another 3 days. Then, all 96-well plates were mixed gently with 10 μl of CCK-8 and cultured in an incubator for 2-3 hours under the conditions of 37° C. and 5% CO2. The OD value per well was measured at 450 nm on a Victor3 microplate reader.
as §2

[4] = LNCaP cells, 1 nM testosterone medium, 4 days of incubation, PSA kit OD450

Row | Compound | IC50 ([1]; LNCaP) [nM] | activity at 3 µM [2] [%] | activity at 10 µM [2] [%] | Vd/F ([3]; in vivo) [L/kg] | AUC ([3]; in vivo) [ng·h/mL] | CL/F ([3]; in vivo) [mL/min/kg] | half-life ([3]; in vivo) [h] | MRT ([3]; in vivo) [h] | Cmax ([3]; in vivo) [ng/mL] | IC50 [1, 4] [nM] | IC50 (LNCaP cells) [nM] | Vd/F ([3]; plasma) [L/kg] | AUC ([3]; plasma) [ng·h/mL] | CL/F ([3]; plasma) [mL/min/kg] | half-life ([3]; plasma) [h] | MRT ([3]; plasma) [h] | Cmax ([3]; plasma) [ng/mL]
1 | CC1(C)C(=O)N(c2ccc(C#N)c(C(F)(F)F)c2)C(=S)N1c1ccc(OCC2(N)CC2)c(F)c1 [Example 6, 4-(3-(4-((1-Aminocyclopropyl)methoxy)-3-fluorophenyl)-4,4-dimethyl-5-oxo-2-thioxoimidazolidin-1-yl)-2-(trifluoromethyl)benzonitrile] | 24 | 93.2 | 100 | 6.02 ± 1.69 | 16800 ± 7480 | 5.75 ± 2.44 | 13.1 ± 4.6 | 17.8 ± 6.2 | 1200 ± 330 | – | – | – | – | – | – | – | –
2 | CC1(C)C(=O)N(c2ccc(C#N)c(C(F)(F)F)c2)C(=S)N1c1ccc(O[C@@H]2COC[C@H]2O)c(F)c1 [Example 8, 4-(3-(3-fluoro-4-(((3R,4R)-4-hydroxytetrahydrofuran-3-yl)oxy)phenyl)-4,4-dimethyl-5-oxo-2-thioxoimidazolidin-1-yl)-2-(trifluoromethyl)benzonitrile] | 21 | 65 | 99.5 | – | – | – | – | – | – | – | – | – | – | – | – | – | –
3 | CC1(C)C(=O)N(c2ccc(C#N)c(C(F)(F)F)c2)C(=S)N1c1ccc(O[C@H]2COC[C@@H]2O)c(F)c1 [Example 9, 4-(3-(3-fluoro-4-(((3S,4S)-4-hydroxytetrahydrofuran-3-yl)oxy)phenyl)-4,4-dimethyl-5-oxo-2-thioxoimidazolidin-1-yl)-2-(trifluoromethyl)benzonitrile] | 26 | 90.8 | 85 | 4.59 ± 0.556 | 18800 ± 3300 | 4.52 ± 0.77 | 11.8 ± 1.1 | 18.3 ± 1.9 | 772 ± 83 | – | – | – | – | – | – | – | –
4 | CC1(C)C(=O)N(c2ccc(C#N)c(C(F)(F)F)c2)C(=S)N1c1ccc(OCCO)nc1 [Example 10, 4-(3-(6-(2-Hydroxyethoxy)pyridin-3-yl)-4,4-dimethyl-5-oxo-2-thioxoimidazolidin-1-yl)-2-(trifluoromethyl)benzonitrile] | – | 74.7 | 68.1 | – | – | – | – | – | – | 23 | 131 | – | – | – | – | – | –
5 | CC1(C)C(=O)N(c2ccc(C#N)c(C(F)(F)F)c2)C(=S)N1c1ccc(OCCO)c(F)c1 [Example 12, 4-(3-(3-Fluoro-4-(2-hydroxyethoxy)phenyl)-4,4-dimethyl-5-oxo-2-thioxoimidazolidin-1-yl)-2-(trifluoromethyl)benzonitrile] | – | 69.6 | 90.7 | – | – | – | – | – | – | 33 | 146 | – | – | – | – | – | –
6 | CC1(C)C(=O)N(c2ccc(C#N)c(C(F)(F)F)c2)C(=S)N1c1ccc(OCC(O)CO)c(F)c1 (centres unmarked) [Example 13, 4-(3-(4-(2,3-Dihydroxypropoxy)-3-fluorophenyl)-4,4-dimethyl-5-oxo-2-thioxoimidazolidin-1-yl)-2-(trifluoromethyl)benzonitrile] | 88 | 53.6 | 71.5 | 2.31 ± 0.553 | 26500 ± 7380 | 3.35 ± 1.1 | 8.1 ± 0.65 | 13.1 ± 1.5 | 1550 ± 197 | – | – | – | – | – | – | – | –
7 | CC1(C)C(=O)N(c2ccc(C#N)c(C(F)(F)F)c2)C(=S)N1c1ccc(O[C@@H]2COC[C@H]2O)cc1 [Example 15, 4-(3-(4-(((3R,4R)-4-hydroxytetrahydrofuran-3-yl)oxy)phenyl)-4,4-dimethyl-5-oxo-2-thioxoimidazolidin-1-yl)-2-(trifluoromethyl)benzonitrile] | 52 | 77.5 | 84.8 | 3.97 ± 0.341 | 21400 ± 4100 | 3.99 ± 0.75 | 11.7 ± 1.7 | 18.2 ± 2.3 | 999 ± 172 | – | – | – | – | – | – | – | –
8 | CC1(C)C(=O)N(c2ccc(C#N)c(C(F)(F)F)c2)C(=S)N1c1ccc(OC[C@@H](O)CO)cc1 [Example 44, (S)-4-(3-(4-(2,3-Dihydroxypropoxy)phenyl)-4,4-dimethyl-5-oxo-2-thioxoimidazolidin-1-yl)-2-(trifluoromethyl)benzonitrile] | – | 77.2 | 92.7 | – | – | – | – | – | – | 22 | 33 | 2.45 ± 0.376 | 19300 ± 4170 | 4.47 ± 1.08 | 6.41 ± 0.6 | 10.5 ± 1.3 | 1300 ± 275
9 | CC1(C)C(=O)N(c2ccc(C#N)c(C(F)(F)F)c2)C(=S)N1c1ccc(OC[C@H](O)CO)cc1 [Example 45, (R)-4-(3-(4-(2,3-Dihydroxypropoxy)phenyl)-4,4-dimethyl-5-oxo-2-thioxoimidazolidin-1-yl)-2-(trifluoromethyl)benzonitrile] | – | – | – | – | – | – | – | – | – | 35 | 74 | 3.27 ± 0.261 | 13000 ± 365 | 6.4 ± 0.18 | 5.9 ± 0.3 | 10 ± 0.6 | 980 ± 173
